Measurements taken from patent publication US20050085408A1, “Drugs ameliorating hypo-hdl cholesterolemia” (priority 2001, published 2005).
Where a SMILES comes first, the peptide text is derived from it. [ ]: non-standard residue; d: D form. Nle = CCCC[C@H](N)C(=O)O

Tests used:
ABCA1 = test: Increase of the expression of ABCA1 in THP-1-derived macrophages (immunoblotting); type: cell-based, human; conditions: for intracellular expression of ABCA1 compared with control cells: THP-1 macrophages
Description: THP-1 cells (human leukemia cell, American Type Culture Collection) were cultured for 72 hours in a 10% FBS-RPMI1640 medium (Iwaki Glass Co., Ltd.), together with PMA (phorbol myristate acetate, Wako Pure Chemical Industries Ltd.) to obtain differentiated macrophages. The medium was replaced with 0.2% BSA-RPMI 1640 (Iwaki Glass Co., Ltd.) to which ALLN (50 μM, Sigma) was added, and examined for the time-course of intracellular ABCA1 expression according to the method illustrated herein below.
ALLN-treated cells and control cells cultivated in ALLN-free media were hypotonically disrupted in 5 mM Tris-HCl (pH8.5), and then centrifuged (650 g, for 5 minutes) to precipitate nuclear fractions. The supernatant was centrifuged at 105,000 g for 30 minutes to collect a total membrane fraction. The total membrane was dissolved in an aqueous solution containing 0.9M urea, 0.2% triton X-100 (Wako Pure Chemical Industries Ltd.), and 0.1% dithiothreitol (Wako Pure Chemical Industries Ltd.), followed by addition of 10% lithium dodecyl sulfate solution (Wako Pure Chemical Industries Ltd.) at a volume ratio of 1/4. The resultant was subjected to electrophoretic separation using 10% SDS-7% polyacrylamide gel (Wako Pure Chemical Industries Ltd.). The separated protein was fixed and transferred onto PVDF membrane (Bio-Rad). Each sample was then subjected to immunoblotting with rabbit anti-human ABCA1 antibody (self-made purification by an ordinary method) to quantitate expressed ABCA1 proteins. The obtained bands were read for density and size with Scion Image (image analysis software, Scion) to digitize the results.
In the same manner as in Assay Example 1, THP-1 cells were cultured in a medium to which leupeptin was added in place of ALLN, and compared with control cells non-treated with leupeptin.

THP-1 cells = test: Acceleration of apoAI-dependent HDL formation (cholesterols and phospholipids transported into the medium); type: cell-based, human; conditions: apoAI & ALLN-added cells vs control group and apoAI-added group; FIG. 3
From the text: In the same manner as in Arakawa et al., J. Lipid Res., 41, 1952-1962 (2000), THP-1 cells were used for quantitative analysis of cholesterols and phospholipids transported into the medium on the basis of apoAI-dependent HDL formation. ALLN-added cells were compared with those free of ALLN addition.

Compound | intracellular expression of ABCA1 compared with control cells (ABCA1; ALLN 50 μM in medium) | action of increasing the expression of ABCA1 (ABCA1; ALLN 50 μM, 24 hours after addition) | amount of apoAI-dependently transported cholesterols (THP-1 cells) | amount of apoAI-dependently transported phospholipids (THP-1 cells) | intracellular expression of ABCA1 compared with control cells (ABCA1; leupeptin in place of ALLN, FIG. 2 at 7 hours after addition) | action of elevating the expression of ABCA1 (ABCA1; leupeptin, 24 hours after addition to the medium)
CCCC[C@@H](C=O)NC(=O)[C@H](CC(C)C)NC(=O)[C@H](CC(C)C)NC(C)=O [ALLN, N-acetyl-leu-leu-norleucinal] (Ac-Leu-Leu-[Nle]-aldehyde) | remarkable intracellular expression of ABCA1 | found even 24 hours after addition | increase | increase |  | 
CC(=O)N[C@@H](CC(C)C)C(=O)N[C@@H](CC(C)C)C(=O)N[C@H](C=O)CCCNC(=N)N [leupeptin] |  |  |  |  | remarkable increase in the intracellular expression of ABCA1 | found even 24 hours after addition
